Like-named read-outs stand apart in the source and are kept apart here.
Tests used:
[1] = system: plasma estradiol; experiment: Example I: plasma estradiol by ELISA after single iv dose; format: in vivo, cattle; conditions: doses combined
Protocol: Heifers in which a CL was detected during the initial examination were given […] cloprostenol (PGF, Estrumate™, Schering-Plough Animal Health, Pointe-Claire, QC, Canada) intramuscularly (im) to induce regression of the CL and to synchronize ovulation. Heifers were examined daily by transrectal ultrasonography to detect ovulation. Transvaginal ultrasound-guided follicular aspiration of follicles ≧5 mm was performed five to eight days after ovulation to synchronize wave emergence. Heifers were examined daily by transrectal ultrasonography to detect follicular wave emergence, which was expected 1 to 1.5 days after follicular ablation. Four days after follicular ablation (approximately 2.5 days after follicular wave emergence), and at the time follicular dominance becomes apparent, heifers were assigned randomly to the following treatment groups and given a single intravenous dose of 1) 500 μg/kg of letrozole (high dose group, n=9), 2) 250 μg/kg of letrozole (medium dose group, n=10), 3) 125 μg/kg of letrozole (low dose group, n=10), or 4) 20 ml of phosphate buffered saline (PBS control group, n=10). For practical purposes, the dose of letrozole was calculated based on an average weight of 400 kg for all heifers. The average oral dose used in women (2.5-5 mg per day for 5 days) was used to estimate the medium dose for cattle. The high and low doses were set as double and half the medium dose, respectively. The day of treatment was defined as Day 0. For intravenous injection, letrozole was prepared in 95% ethanol at a final concentration of 5 mg per ml, resulting in an injection volume of 10-40 ml. The experiment was performed in four replicates (n=2-3 per group per replicate) and each heifer was used only once.
Statistical analyses were done using the Statistical Analysis System software package (SAS Learning Edition 9.1, 2006; SAS Institute Inc., Cary, N.C., USA). Time-series hormone data, plasma letrozole concentration, and follicular diameter profiles were analyzed by repeated measures, using the PROC MIXED procedure. The main effects were treatment (high, medium and low dose, and control), time, and their interactions.

[2] = system: plasma progesterone; experiment: Example II: plasma progesterone, 3-day letrozole regimen; format: in vivo, cattle; conditions: 3-day regimen, groups combined; numerically higher
Protocol: Four days after follicular ablation, heifers were given 500 μg of cloprostenol (PGF, Estrumate, Schering-Plough Animal Health, Pointe-Claire, QC, Canada) intramuscularly (im) to induce regression of the CL and to synchronize ovulation. The experiment was performed in two replicates (n=20-27 per replicate) and each heifer was used only once. In replicate 1, heifers were assigned randomly at the time of ovulation (Day 0) to the following groups and given a 3-day regimen of letrozole from Days 1 to 3 (n=5), Days 3 to 5 (n=5), Days 5 to 7 (n=5), or no treatment (control group, n=5). In replicate 2, heifers were similarly assigned to groups and given letrozole from Days 1 to 3, (n=5), Days 3 to 5 (n=4), or Days 5 to 7 (n=4), but untreated control heifers were arranged in three sub-groups to serve as contemporaneous controls for each letrozole-group during intensive blood sampling periods (i.e., control Days 1 to 3, n=4; control Days 3 to 5, n=4; and control Days 5 to 7, n=5). For practical purposes, the total dose of letrozole (250 μg/kg) was calculated on the basis of an average weight of 350 kg for all heifers and administered intravenously in daily divided doses over 3 days (85 μg/kg per day). […]
Plasma progesterone concentrations were determined in duplicate using a commercial solid-phase kit (Coat-A-Count; Diagnostic Products Corporation, Los Angeles, Calif., USA). […]

[3] = system: Hereford-cross beef heifers; experiment: Example II: computer-assisted ultrasound image analysis of CL and dominant follicle; format: in vivo, cattle
Protocol: Ultrasound images from a subset of letrozole-treated (n=4-5 per group) and control (n=6) heifers were recorded throughout the duration of treatment for computer-assisted image analysis. Images were analyzed using a series of custom-developed computer algorithms optimized for ultrasonography ([…] Version 2.8© Saskatoon, Saskatchewan) on a Sun Sparc Station (Sun Microsystems, MT View, Calif.) computer. Echotexture was defined in terms of mean pixel value and pixel heterogeneity. Mean pixel values were quantified using a grey-scale ranging from 0 (black) to 255 (white). The pixel heterogeneity was the standard deviation of grey-scale values of all the pixels within the user-defined region of measurement. Spot analysis of the follicular antrum and corpus luteum, and line analysis of the peripheral antrum, follicular wall and stroma were done as previously described. For spot analyses, the follicular antrum and the CL wall were divided into four quadrants and the sampling area encompassed 75 to 80% of each quadrant. For line analyses, a straight line was drawn transversing the follicular wall from peripheral antrum to stroma and the pixel values along that line were measured in areas located within the 10 and 2 o'clock position of the follicles.
Statistical analyses were done using the Statistical Analysis System software package (SAS Learning Edition 9.1, 2006; SAS Institute Inc., Cary, N.C., USA). Time-series hormone data, plasma letrozole concentration, and follicular and luteal diameter profiles were analysed by repeated measures, using the PROC MIXED procedure. The main effects were treatment, time, and their interactions. […] Single point measurements (interwave and interovulatory intervals, interval from ovulation to onset of CL regression, mean and basal LH concentrations, LH pulse amplitude and frequency, and pharmacokinetic parameters for letrozole) were analysed by analysis of variance. […] If significant main effects or interactions (P≦0.05) were detected, Tukey's post-hoc test was used for multiple comparisons.

[4] = cited from earlier work

## N#Cc1ccc(C(c2ccc(C#N)cc2)n2cncn2)cc1 [Letrozole, letrozole]
[1]; 0 hours (at treatment), mean±SEM
  plasma estradiol concentration: 15.2 ± 3.01 pg/mL
[1]; 24 hours after single iv dose, P=0.03 vs 0 hours
  plasma estradiol concentration: 8.0 ± 1.51 pg/mL
[1]; single iv dose
  decrease of plasma estradiol from 0 to 24 hours after treatment: ~50%
[1]; single iv dose, P=0.06
  mean plasma estradiol over the 4-day period after treatment compared to controls: tended to be higher
[2]
  differences in plasma progesterone concentrations vs control: not significant
[3]; 3-day regimen, any of the three periods
  mean pixel values and heterogeneity of the dominant follicle antrum (spot analysis): not affected significantly
[3]; treated Days 1 to 3, P<0.06
  mean pixel values of the dominant follicle wall (line analysis), pre- to post-treatment: increased
[3]; treated Days 3 to 5 (printed Days 3 and 5)
  mean pixel values or heterogeneity along the follicular wall (line analysis): no effect
[3]; treated Days 5 to 7 (printed Days 5 and 7)
  mean pixel values or heterogeneity along the follicular wall (line analysis): no effect
[4]; in humans [46]
  half-life of letrozole: approximately 2 days
[4]; in women [41, 61]
  half-life of letrozole: 48 h
[4]; in women [41]
  mean residence time: 59 h
  volume of distribution: 1.87 L/kg

Reference: patent US9144569B2, “Methods of administering an aromatase inhibitor, prostaglandin and GnRH for regulating ovulation in cattle” (UNIVERSITY OF SASKATCHEWAN, priority 2010, dated 2015)
